Data taken from patent US20260232666A1, “COMPOSITIONS AND METHODS FOR INHIBITION OF RAS” (TheRas, Inc., priority 2023, published 2026).

Assays:
[1] = target: T1, GTP-loaded KRAS4b (amino acids 1-169) G12C/C118S protein (Homo sapiens, UniProt P01116, C118S/G12C); assay: Covalent cysteine 12 modification by MALDI-TOF MS, GTP-loaded KRAS G12C; assay type: binding; conditions: 15 minutes reaction time point
T1 construct: KRAS4b (amino acids 1-169) G12C/C118S protein; made in house
Procedure: (§1) Biological Example 1: Covalent Cysteine 12 Modification Analysis Using Matrix Assisted Laser Desorption Ionization-Time of Flight Mass Spectrometry (MALDI-TOF MS)
(§2) MALDI-TOF MS analysis was performed using 1 μM protein (KRAS G12C), and 1:2.5 protein to compound ratio.
(§3) Reaction: 1 μM of GppNHp, GTP, or GDP-loaded KRAS4b (amino acids 1-169) G12C/C118S protein (produced in-house by Protein Expression Laboratory, FNLCR/Leidos Biomed) in 20 mM 4-(2-hydroxyethyl)-1-piperazineethanesulfonic acid (HEPES) buffer containing 150 mM NaCl, 1 mM MgCl2, pH 7.3 was prepared freshly before assay. Twelve-μL aliquots of protein were dispensed onto low volume 384-well plate, then 30 nL of tested compounds from 1 mM DMSO stocks were added to appropriate wells using ECHO 555 acoustic liquid handler (Labcyte Inc.). For each reaction/assay, three blanks were prepared by mixing 12 μL of protein solution with 30 nL DMSO. The contents of the wells were carefully mixed by aspiration, and then each plate was sealed with an adhesive cover, centrifuged at 2000 g for 1 minute, and kept in the dark at room temperature until 5 min, 15 min, 30 min, 2 h, or 6 h collections.
(§4) Target pretreatment: Before each assay MALDI target (Bruker MPT 384 ground steel BC) was pre-treated by pipetting on each spot 0.75 μL of saturated sinapinic acid in acetonitrile (ACN).
(§5) Sample preparation: At collection time point, 2 μL of reaction mixtures were pipetted out into 15 μL MALDI matrix solution (saturated solution of sinapinic acid in 1:1 ACN:water solution containing 0.75% trifluoroacetic acid (TFA)) deposited on 384 well polypropylene plate. Resulting solution was mixed by aspiration, centrifuged at 2000 g for 1 minute, then 1.5 μL aliquots were dispensed on pre-treated MALDI target using Beckman Coulter Biomek FXP 96/384-Span-8 Laboratory Automation Workstation. Finally, the MALDI target was dried under mild vacuum to produce spots with fine crystalline structure.
(§6) Measurements: MALDI-TOF measurements were performed on a Bruker Daltonics rapiflex Tissuetyper TOF-TOF mass spectrometer using linear mode and mass range from 18.6 to 21.6 kDa. Detector gain was set to 3.3×(483 V), sample rate to 5 GS/s, real time smoothing to medium (175 MHz), laser smart beam pattern was set to: “MS Thin Layer M5”, and the laser frequency was 10000 Hz. Spectra were automatically collected using custom AutoXecute method. Laser power was auto adjusted using fuzzy control. The peak selection range was set to be between 19000 and 21500 Da. Peak evaluation uses half width parameter set to be smaller than 40 Da for processed spectrograms (centroid peak detection; smoothed by SavitzkyGolay algorithm using 7 m/z width and 2 cycles; baseline was subtracted using median algorithm with flatness 1 and median level 0.01). Fuzzy control used Proteins/Oligonucleotides protocol with minimum half width 1/10 times above threshold. Up to 40000 satisfactory shots were collected in 10000 shot steps. Dynamic termination was implemented to finish data collection when peak signal/noise ratio was reaching value of 50.
(§7) Spectra processing: Spectra were smoothed by SavitzkyGolay algorithm using 7 m/z width and three cycles. Centroid peak detection algorithm was used with signal to noise threshold set to 6, relative intensity threshold 4%, peak width 10 m/z and median baseline subtraction using flatness of 1 and median level of 0.01. Peak intensity and area under the peak were evaluated and recorded for all peaks between 19,300 Da and 21,550 Da.
(§8) Calculation of percent modification: Percent modification was calculated as a ratio of peak height for protein modified by compound to sum of peak height of remaining protein plus peak height for protein modified by compound. If multiple modifications were observed each was calculated as a ratio of peak height for given modification versus sum of peak heights for all observed protein species. Data reported in Table 4 are from 15 minutes reaction time point. […]

[2] = target: T2, GppNHp-loaded KRAS4b (amino acids 1-169) G12C/C118S protein (Homo sapiens, UniProt P01116, C118S/G12C); assay: Covalent cysteine 12 modification by MALDI-TOF MS, GppNHp-loaded KRAS G12C; assay type: binding; conditions: 15 minutes reaction time point
T2 construct: KRAS4b (amino acids 1-169) G12C/C118S protein; made in house
Procedure: as §1, §2, §3, §4, §5, §6, §7, §8

[3] = target: T3, GDP-loaded KRAS4b (amino acids 1-169) G12C/C118S protein (Homo sapiens, UniProt P01116, C118S/G12C); assay: Covalent cysteine 12 modification by MALDI-TOF MS, GDP-loaded KRAS G12C; assay type: binding; conditions: 15 minutes reaction time point
T3 construct: KRAS4b (amino acids 1-169) G12C/C118S protein; made in house
Procedure: as §1, §2, §3, §4, §5, §6, §7, §8

pERK in NCI-H358 cells = assay: Cell-based pERK HTRF assay (pERK inhibition in H358 cells); conditions: 30 min incubation
Procedure: Biological Example 3: Cell-Based pERK HTRF Assay
pERK assays (Perkin Elmer) were used to determine the effectiveness of compounds of the present disclosure in disrupting KRAS G12C protein/effector signaling in cells.
On Day 1, cells (NCI-H358) were seeded into 96-well plates at 4×10^4 cells/well in complete growth media (RPMI, 10% FBS).
On Day 2, cells were treated with compounds at 0.25% DMSO. The source plate was created with compounds diluted in media at 5-fold the final assay concentration. The compounds were run in a 9-point concentration curve starting at 75 μM, with a 3-fold dilution between concentrations. 20 μL was transferred onto the cell plates (final volume in wells was 100 μL). Plates were harvested after 30 min incubation by aspirating media and adding kit-supplied 1× supplemented lysis buffer to all wells (75 μl per well). Plates were then placed on a plate shaker and incubated at 850 rpm for an additional 30 min.
Antibody mixture solution was prepared by diluting aliquoted d2 and Eu Cryptate antibodies 1:20 in kit supplied detection buffer, then mixed the diluted antibodies solutions (1:1 v:v). 4 μL of this solution was then added to a 384-well detection plate (Perkin Elmer; 6008230).
Samples were homogenized by pipetting up and down and then transferred (16 μL of cell lysates) from the 96-well cell culture plate to two wells of the HTRF 384-well detection plate containing the antibody solution. Plates were centrifuged (524 g for […]) and allowed to incubate between 4 and 24 h at room temperature. Maximum signal is reached after 4 h incubation time and remains stable over a period of 24 hours. Therefore, readings can be made between 4 and 24 h of incubation. Plates were centrifuged again (524 g for 1 min), and analyzed on the En Vision plate reader using the following settings: Excitation 320 nm, Bandwidth 75 nm; Emission 615 nm, Bandwidth 85 nm; Gain 100%; Flashes 100; Lag 60 μs.
The percent of modification of GppNHp, GTP, or GDP loaded KRAS G12C by MALDI-TOF MS, biochemical Raf1 RBD-KRAS G12C-GppNHp disruption assay IC50, and pERK inhibition IC50 of selected compounds described herein are shown in Table 4. For percent of modification at 15 minutes (MALDI-TOF MS) of GppNHp, GTP, or GDP loaded KRAS G12C: A: percent of modification ≥70%; B: 50≤percent of modification <70%; C: 10%≤percent of modification <50%; D: percent of modification <10%. […] For pERK inhibition in H358 cell assay: A: IC50≤0.1 μM; B: 0.1 μM<IC50≤1 μM; C: IC50>1 μM. Blanks in the table represent that compound was not tested in the indicated assay.

GTP-KRAS G12C percent of modification [1]	GppNHp-KRAS G12C percent of modification [2]	GDP-KRAS G12C percent of modification [3]	IC50 (pERK in NCI-H358 cells; Homo sapiens, NCI-H358, 0.5 h) [nM]	IC50 (pERK in NCI-H358 cells) [nM]	SMILES
A (percent of modification ≥70%)	A (percent of modification ≥70%)	–	–	–	C=CC(=O)N1CC[C@@H](N(C)c2nc(OC[C@@]34CCCN3C[C@H](F)C4)nc3c(F)c(-c4ccc(F)c5sc(N)c(C#N)c45)c(Cl)cc23)[C@H]1C (atropisomer, axis not shown) [Compound 51]
A (percent of modification ≥70%)	A (percent of modification ≥70%)	A (percent of modification ≥70%)	–	–	C=CC(=O)N1CC[C@@H](N(C)c2nc(OC[C@@]34CCCN3C[C@H](F)C4)nc3c(F)c(-c4ccc(F)c5sc(N)c(C#N)c45)c(C(F)(F)F)cc23)[C@@H]1C (atropisomer, axis not shown) [Compound 70]
D (percent of modification <10%)	D (percent of modification <10%)	D (percent of modification <10%)	100 to 1000	–	C[C@@H]1[C@H](N(C)c2nc(OC[C@@]34CCCN3C[C@H](F)C4)nc3c(F)c(-c4ccc(F)c5sc(N)c(C#N)c45)c(C(F)(F)F)cc23)CCN1C(=O)[C@@H](F)Cl (atropisomer, axis not shown) [Compound 184]
A (percent of modification ≥70%)	A (percent of modification ≥70%)	A (percent of modification ≥70%)	–	< 100	C[C@@H]1[C@H](N(C)c2nc(OC[C@@]34CCCN3C[C@H](F)C4)nc3c(F)c(-c4ccc(F)c5sc(N)c(C#N)c45)c(C(F)(F)F)cc23)CCN1C(=O)[C@@H](F)Cl (atropisomer, axis not shown) [Compound 185]
D (percent of modification <10%)	D (percent of modification <10%)	D (percent of modification <10%)	100 to 1000	–	C[C@@H]1[C@H](N(C)c2nc(OC[C@@]34CCCN3C[C@H](F)C4)nc3c(F)c(-c4ccc(F)c5sc(N)c(C#N)c45)c(C(F)(F)F)cc23)CCN1C(=O)[C@H](F)Cl (atropisomer, axis not shown; (aS)) [Compound 182, 2-amino-4-((R)-4-(((2R,3R)-1-((R)-2-chloro-2-fluoroacetyl)-2-methylpyrrolidin-3-yl)(methyl)amino)-8-fluoro-2-(((2R,7aS)-2-fluorotetrahydro-1H-pyrrolizin-7a(5H)-yl)methoxy)-6-(trifluoromethyl)quinazolin-7-yl)-7-fluorobenzo[b]thiophene-3-carbonitrile]
A (percent of modification ≥70%)	A (percent of modification ≥70%)	A (percent of modification ≥70%)	–	–	C=CC(=O)N1CC[C@@H](N(C)c2nc(OC[C@@]34CCCN3C[C@H](F)C4)nc3c(F)c(-c4ccc(F)c5sc(N)c(C#N)c45)ccc23)[C@H]1C [Compound 13]
A (percent of modification ≥70%)	A (percent of modification ≥70%)	A (percent of modification ≥70%)	–	–	C=CC(=O)N1CC[C@@H](N(CC)c2nc(OC[C@@]34CCCN3C[C@H](F)C4)nc3cc(-c4ccc(F)c5sc(N)c(C#N)c45)c(F)cc23)[C@H]1C [Compound 21, 4-(4-(((2R,3R)-1-acryloyl-2-methylpyrrolidin-3-yl)(ethyl)amino)-6-fluoro-2-(((2R,7aS)-2-fluorotetrahydro-1H-pyrrolizin-7a(5H)-yl)methoxy)quinazolin-7-yl)-2-amino-7-fluorobenzo[b]thiophene-3-carbonitrile]
–	B (50≤percent of modification <70%)	C (10%≤percent of modification <50%)	–	–	C=CC(=O)N1C[C@H](C)N(c2nc(OC[C@]34CCCN3C[C@@H](F)C4)nc3c(F)c(-c4ccc(F)c5sc(N)c(C#N)c45)c(C(F)(F)F)cc23)C[C@H]1C [Compound 26]
B (50≤percent of modification <70%)	A (percent of modification ≥70%)	–	< 100	–	C=CC(=O)N1CC[C@@H](N(CC)c2nc(OC[C@@]34CCCN3C[C@H](F)C4)nc3c(F)c(-c4ccc(F)c5sc(N)c(C#N)c45)c(Cl)cc23)[C@H]1C [Compound 85]
A (percent of modification ≥70%)	A (percent of modification ≥70%)	A (percent of modification ≥70%)	–	–	C=CC(=O)N1CC[C@@H](N(C)c2nc(O[C@@H](C)[C@@H]3C[C@@H](OC)CN3C)nc3c(F)c(-c4ccc(F)c5sc(N)c(C#N)c45)c(C(F)(F)F)cc23)[C@H]1C [Compound 192]
